Data taken from patent publication US20240344241A1, “PROTEINACEOUS MOLECULES AND USES THEREFOR” (THE UNIVERSITY OF QUEENSLAND, priority 2021, published 2024).
Read-outs that look alike come from different tables or passages of the source. Bridge positions count the residues as written; N and C are the ends. Peptide text beside a SMILES is read from it.

Legend:
bovine trypsin = molecular target: T1, bovine trypsin (Bos taurus, UniProt P00760); assay: Surface plasmon resonance binding to trypsin
T1 sequence (P00760 24-246): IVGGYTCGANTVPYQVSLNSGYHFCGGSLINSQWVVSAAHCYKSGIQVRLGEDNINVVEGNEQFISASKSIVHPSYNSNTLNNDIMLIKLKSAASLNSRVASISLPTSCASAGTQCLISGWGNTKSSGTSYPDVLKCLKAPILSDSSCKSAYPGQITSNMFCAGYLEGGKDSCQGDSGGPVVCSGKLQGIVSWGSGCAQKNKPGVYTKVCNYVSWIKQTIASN

[1] = molecular target: T2, biotinylated human β-FXIIa (Homo sapiens, UniProt P00748); assay: Surface plasmon resonance binding to FXIIa
T2 construct: purchased Molecular Innovations
T2 sequence (P00748 373-615 limits assumed, other chains not shown): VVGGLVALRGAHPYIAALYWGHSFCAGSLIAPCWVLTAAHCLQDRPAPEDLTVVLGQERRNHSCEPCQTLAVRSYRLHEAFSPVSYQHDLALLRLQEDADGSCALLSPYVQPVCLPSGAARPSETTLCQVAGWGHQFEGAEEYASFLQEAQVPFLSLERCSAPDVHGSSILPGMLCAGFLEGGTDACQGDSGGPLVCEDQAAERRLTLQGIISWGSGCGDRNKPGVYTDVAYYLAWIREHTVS
Description: Binding kinetics of each peptide towards biotinylated human β-FXIIa (Molecular Innovations) and non-labelled zymogen FXII (Haematologic Technologies) were determined using a Biacore T200 machine (Cytiva). For β-FXIIa binding measurements, the running buffer was HBS-EP+(10 mM HEPES, 150 mM NaCl, 3 mM EDTA and 0.05% (v/v) surfactant P20, pH 7.4). Biotinylated β-FXIIa was immobilized on a Sensor Chip CAP (Cytiva) using Biotin CAPture Reagent (Cytiva). A series of concentrations of each peptide were injected as analyte and the binding kinetics were modelled using a 1:1 binding model. Regeneration of sensor surface was performed after each measurement cycle. For FXII binding measurements, the running buffer was PBST (137 mM NaCl, 2.7 mM KCl, 10 mM Na2HPO4, 1.8 mM KH2PO4, 0.05% Tween-20). Non-labelled FXII was immobilized on a Sensor Chip CM5 (Cytiva) using Amine Coupling Kit (Cytiva), achieving a final immobilization level of 2500 RU. Each peptide was flowed through immobilized FXII at 5 μM for 60 s and allowed dissociation for 150 s.

Human β-FXIIa = molecular target: T3, Human β-FXIIa (Homo sapiens, UniProt P00748); assay: FXIIa competitive inhibition assay, colorimetric substrate Ac-QRFR-pNA; assay type: biochemical
T3 construct: Human β-FXIIa was obtained from Molecular Innovations, together with human FXa, human FXIa, human α-thrombin, and human plasma kallikrein; purchased Molecular Innovations; host or cells: purified from human plasma
T3 sequence (P00748 373-615 limits assumed, other chains not shown): as above
Description: The activity of acyclic and cyclic MCoFx1-5 and analogues thereof was assessed in competitive inhibition assays, as previously described in Swedberg et al. (2016) J Med Chem, 59: 7287-7292. Human β-FXIIa was obtained from Molecular Innovations, together with human FXa, human FXIa, human α-thrombin, and human plasma kallikrein. Human cationic trypsin and human plasmin were obtained from Sigma-Aldrich, and recombinant human matriptase was sourced from R&D Systems. Recombinant human urokinase (uPA) and recombinant human tissue plasminogen activator (tPA) were expressed in Expi293 cells, as previously described in Li et al. (2019) Chembiochem, 20: 46-50. FXIIa inhibition assays were performed in clear, low-binding 96-well plates using 250 μL (final volume) of assay buffer (0.1 M Tris-HCl pH 8.0, 0.1 M NaCl, 10 mM CaCl2 and 0.005% Triton X-100). Inhibitors were serially diluted and incubated with 10 nM FXIIa at room temperature to reach equilibrium. After adding 100 μM Ac-QRFR-pNA substrate (KM=162 μM), enzymatic activity was measured by monitoring release of the pNA moiety using a TECAN infinite M1000 Pro plate reader (A=405 nm, reading interval, 10 s; assay time course, 7 min). Assays were conducted in three times in duplicate. Substrate kinetic constants (Michaelis-Menten) and inhibition constants (Morrison K) were determined by non-linear regression using Prism 7 (GraphPad). Selectivity assays with off-target proteases were performed in a similar way, except that different concentrations of enzyme and substrate were used, as indicated in Table 16. For assays using a fluorescent substrate (peptide-4-methylcoumaryl-7-amide, MCA), black low-binding 96-well plates were used and activity was measured using a TECAN infinite M1000 pro plate reader (λex 360 nm, λem 460 nm, reading interval, 30 s; assay time course, 5-30 min).

[2] = Table 8, cyclic form, read-out: KD (nM) Trypsin Cyclic
[3] = Table 7, FXIIa, cyclic form of the peptide, read-out: Ki (nM) Cyclic
[4] = Table 8, cyclic form, read-out: KD (nM) FXIIa Cyclic

Structure (SMILES) | Kd (bovine trypsin; [2]) [nM] | Kd ([1]; Table 7, FXIIa, cyclic form of the peptide, read-out: KD (nM) Cyclic) [nM] | Ki (Human β-FXIIa; [3]) [nM] | Kd (bovine trypsin) [nM] | Kd [1] [nM] | Ki (Human β-FXIIa) [nM] | Kd [1, 4] [nM]
CC[C@H](C)[C@@H]1NC(=O)CNC(=O)CNC(=O)[C@H](CC(=O)O)NC(=O)[C@H](CO)NC(=O)CNC(=O)[C@H](CO)NC(=O)CNC(=O)[C@@H]2CSSC[C@@H]3NC(=O)[C@H](CC(=O)O)NC(=O)[C@H](CO)NC(=O)[C@H](CC(=O)O)NC(=O)[C@H](CCCNC(=N)N)NC(=O)[C@H](CCCNC(=N)N)NC(=O)[C@@H]4CSSC[C@H](NC(=O)[C@H]([C@@H](C)CC)NC(=O)[C@H](CSSC[C@H](NC1=O)C(=O)N1CCC[C@H]1C(=O)N[C@@H](CCCNC(=N)N)C(=O)N[C@@H]([C@@H](C)CC)C(=O)N[C@@H](CC(C)C)C(=O)N[C@@H](C(C)C)C(=O)N[C@@H](Cc1ccc(O)cc1)C(=O)N4)NC(=O)[C@H](C)NC(=O)CNC(=O)[C@@H]1CCCN1C3=O)C(=O)N[C@@H]([C@@H](C)CC)C(=O)N[C@@H](CCCNC(=N)N)C(=O)N[C@@H](CCCNC(=N)N)C(=O)N[C@@H]([C@@H](C)O)C(=O)N[C@@H](Cc1ccc(O)cc1)C(=O)N2 [MCoFx2 cyclic] (cyclo(ACICIRRTYCGSGSDGGICPRILVYCRRDSDCPG); disulfide 2-19, 4-26, 10-32) | < 0.1 | 10 | 12 ± 0.7 |  |  |  | 
CC[C@H](C)[C@@H]1NC(=O)[C@@H]2CSSC[C@H](NC(=O)[C@H](CCCNC(=N)N)NC(=O)CNC(=O)CNC(=O)[C@@H](N)CC(=O)O)C(=O)N3CCC[C@H]3C(=O)N[C@@H](CCCNC(=N)N)C(=O)N[C@@H](CC(C)C)C(=O)N[C@@H](CC(C)C)C(=O)N[C@@H](CCCNC(=N)N)C(=O)N[C@@H](Cc3c[nH]c4ccccc34)C(=O)N[C@H]3CSSC[C@H](NC1=O)C(=O)N[C@@H](C)C(=O)N[C@@H](CCCNC(=N)N)C(=O)NCC(=O)NCC(=O)N[C@@H](CC(C)C)C(=O)N[C@H](C(=O)NCC(=O)N[C@@H](CO)C(=O)NCC(=O)N[C@@H](CO)C(=O)O)CSSC[C@H](NC(=O)[C@H](CC(=O)O)NC(=O)[C@H](CO)NC(=O)[C@H](CC(=O)O)NC(=O)[C@H](CCCNC(=N)N)NC(=O)[C@H](CCCNC(=N)N)NC3=O)C(=O)N1CCC[C@H]1C(=O)NCC(=O)N[C@@H](C)C(=O)N2 [MCoFx3 acyclic] (H-DGGRCPRLLRWCRRDSDCPGACICARGGLCGSGS-OH; disulfide 5-22, 12-24, 18-30) |  |  |  | 2.39 | 167 ± 40 | 525 ± 30 | 
CC[C@H](C)[C@@H]1NC(=O)[C@@H]2CSSC[C@@H]3NC(=O)[C@H](CCCNC(=N)N)NC(=O)CNC(=O)CNC(=O)[C@H](CC(=O)O)NC(=O)[C@H](CO)NC(=O)CNC(=O)[C@H](CO)NC(=O)CNC(=O)[C@@H]4CSSC[C@H](NC(=O)[C@H](CC(=O)O)NC(=O)[C@H](CO)NC(=O)[C@H](CC(=O)O)NC(=O)[C@H](CCCNC(=N)N)NC(=O)[C@H](CCCNC(=N)N)NC(=O)[C@H](CSSC[C@H](NC1=O)C(=O)N[C@@H](C)C(=O)N[C@@H](CCCNC(=N)N)C(=O)NCC(=O)NCC(=O)N[C@@H](CC(C)C)C(=O)N4)NC(=O)[C@H](Cc1c[nH]c4ccccc14)NC(=O)[C@H](CCCNC(=N)N)NC(=O)[C@H](CC(C)C)NC(=O)[C@H](CC(C)C)NC(=O)[C@H](CCCNC(=N)N)NC(=O)[C@@H]1CCCN1C3=O)C(=O)N1CCC[C@H]1C(=O)NCC(=O)N[C@@H](C)C(=O)N2 [MCoFx3 cyclic] (cyclo(ACICARGGLCGSGSDGGRCPRLLRWCRRDSDCPG); disulfide 2-19, 4-26, 10-32) | 2.72 |  | 75 ± 3 |  |  |  | 22.8 ± 1.6
CC[C@H](C)[C@@H]1NC(=O)[C@@H]2CSSC[C@H](NC(=O)[C@@H](NC(=O)CNC(=O)CNC(=O)[C@@H](N)CC(=O)O)C(C)C)C(=O)N3CCC[C@H]3C(=O)N[C@@H](CCCNC(=N)N)C(=O)N[C@@H](C(C)C)C(=O)NCC(=O)N[C@@H](Cc3c[nH]c4ccccc34)C(=O)N[C@@H](CCCNC(=N)N)C(=O)N[C@H]3CSSC[C@H](NC1=O)C(=O)N[C@@H](Cc1ccc(O)cc1)C(=O)N1CCC[C@H]1C(=O)N[C@@H]([C@@H](C)O)C(=O)N[C@@H](CCCCN)C(=O)N[C@@H](Cc1c[nH]c4ccccc14)C(=O)N[C@H](C(=O)NCC(=O)N[C@@H](CO)C(=O)NCC(=O)N[C@@H](CO)C(=O)O)CSSC[C@H](NC(=O)[C@H](CC(=O)O)NC(=O)[C@H](CO)NC(=O)[C@H](CC(=O)O)NC(=O)[C@H](CCCNC(=N)N)NC(=O)[C@H](CCCNC(=N)N)NC3=O)C(=O)N1CCC[C@H]1C(=O)NCC(=O)N[C@@H](C)C(=O)N2 [MCoFx4 acyclic] (H-DGGVCPRVGWRCRRDSDCPGACICYPTKWCGSGS-OH; disulfide 5-22, 12-24, 18-30) |  |  |  | 15.1 | 73.8 ± 6.3 | 17 ± 0.9 | 
CC[C@H](C)[C@@H]1NC(=O)[C@@H]2CSSC[C@@H]3NC(=O)[C@H](C(C)C)NC(=O)CNC(=O)CNC(=O)[C@H](CC(=O)O)NC(=O)[C@H](CO)NC(=O)CNC(=O)[C@H](CO)NC(=O)CNC(=O)[C@@H]4CSSC[C@H](NC(=O)[C@H](CC(=O)O)NC(=O)[C@H](CO)NC(=O)[C@H](CC(=O)O)NC(=O)[C@H](CCCNC(=N)N)NC(=O)[C@H](CCCNC(=N)N)NC(=O)[C@H](CSSC[C@H](NC1=O)C(=O)N[C@@H](Cc1ccc(O)cc1)C(=O)N1CCC[C@H]1C(=O)N[C@@H]([C@@H](C)O)C(=O)N[C@@H](CCCCN)C(=O)N[C@@H](Cc1c[nH]c5ccccc15)C(=O)N4)NC(=O)[C@H](CCCNC(=N)N)NC(=O)[C@H](Cc1c[nH]c4ccccc14)NC(=O)CNC(=O)[C@H](C(C)C)NC(=O)[C@H](CCCNC(=N)N)NC(=O)[C@@H]1CCCN1C3=O)C(=O)N1CCC[C@H]1C(=O)NCC(=O)N[C@@H](C)C(=O)N2 [MCoFx4 cyclic] (cyclo(ACICYPTKWCGSGSDGGVCPRVGWRCRRDSDCPG); disulfide 2-19, 4-26, 10-32) | 4.09 |  | 5.5 ± 0.5 |  |  |  | 14.4 ± 1.1
